Assay [1] concerns NCI-H1975 cells (EGFR L858R/T790 double mutant). Kind of assay: H1975 inhibition assay (cell proliferation), Method A. In kind it is cell-based. The note with it: Homo sapiens; cellular proliferation, NCI-H1975 cells, 72 h, CellTiter-Glo (Table 1); read-out: NCI-H1975 IC50 (nM) DM. The procedure:
(§1) Cell Proliferation Assays—Method A
H1975 Inhibition Assay (Cell Proliferation)
(§2) The final concentration was 4,000 cells/well. Add medium only as low control.
(§3) Day-2: Test compounds were dissolved in DMSO at 0.2 mM (200×).
(§4) Day-5: After 72 hours incubation, remove the plates from incubator and equilibrate at room temperature for 15 minutes. Incubate the CellTiter Glo reagents (Promega, G9243) at 37° C. before the experiment. The buffer was equilibrated to room temperature and used to dissolve the substrate. To determine the cell viability, add 30 μL of CellTiter-Glo reagent into each well to be detected. Then shake the plates at room temperature for 10 min and followed by plate read on Envision (PerkinElmer).
(§5) For estimation of IC50, the luminescence readout are transformed to % Inhibition by applying the following equation: The IC50 was then
(§6) [formula] calculated by fitting in XLFit to a four parameters logistic curve.

Another assay has as its target EGFR_T790M/L858R (Homo sapiens, UniProt P00533, L858R/T790M). The assay is described as follows: Enzyme assay, IC50 for double-mutant EGFR (EGFR_T790M/L858R) (Caliper). In kind it is biochemical. The following applies: enzyme phosphorylation assay; read-out: EGFR_L858R/T790 IC50. On the procedure: (§7) Using the same technique as described in the previous paragraph, various mutated forms of the epidermal growth factor receptor may be isolated from appropriate cell lines which contain them. For example, the EGFR de1746-750 mutant protein may be extracted from PC-9 cells, and the L858R/T790M double mutant EGFR protein may be isolated from H1975 cells.
Determination of IC50 Values for Double-Mutant EGFR (EGFR_T790M/L858R)
Dilute all compounds to 500 μM stock solutions in 100% DMSO and make a serial of 4-fold dilution for 10 does. “Max” and “Min” control contain 100% DMSO. “Max” stands for […], “Min” stands for low control without compounds. Transfer 10 μl of compounds to 90 μl of 1× kinase base buffer to make intermediate dilution. […] Incubate at RT for 1 hr and 25 μl stop buffer to end up reaction. Collect conversion data from Caliper and conversion data from Caliper program. Fit the data in XLfit to obtain IC50 values.

The target of another assay is EGFR_d746-750 (Homo sapiens, UniProt P00533, DEL746-750). The assay is described as follows: Enzyme assay, IC50 for single mutant EGFR_d746-750 (Caliper). In kind it is biochemical. The following applies: enzyme phosphorylation assay. The procedure:
as §7
Determination of IC50 Values for Single Mutant EGFR_d746-750
Dilute all compounds to 500 μM stock solutions in 100% DMSO and make a serial of 4-fold dilution for 10 doses. “Max” and “Min” control contain 100% DMSO. “Max” stands for […], “Min” stands for low control without compounds. Transfer 10 μl of compounds to 90 μl of 1× kinase base buffer to make intermediate dilution. […] Incubate at RT for 1 hr and 25 μl stop buffer to end up reaction. Collect conversion data from Caliper and conversion data from Caliper program. Fit the data in XLfit to obtain IC50 values.

Assay [2] concerns PC9 cells (EGFR d746-750 single mutant). The assay is described as follows: PC-9 growth inhibition assay (cell proliferation), Method A. It counts as cell-based, human. The note with it: Homo sapiens, PC-9; cellular proliferation, PC9 cells, 72 h, CellTiter-Glo (Table 1); read-out: PC9 IC50 (nM) SM. On the procedure:
as §1, §2, §3, §4, §5, §6
PC-9 Growth Inhibition Assay (Cell Proliferation)
The inhibition assay for PC-9 cells was processed in the same manner as described for the H1975 cells.
In general terms: ATP-based viability assays read luminescence as a measure of living cells.

For a further assay, the target named is T1, Wt EGFR (Homo sapiens, UniProt P00533).
T1 construct: isolated from A431 human epidermoid carcinoma cells which overexpress EGF receptor; endogenous in cells; host or cells: A431 human epidermoid carcinoma cells (receptor purified on wheat germ agglutinin sepharose)
T1 sequence (P00533 25-1210): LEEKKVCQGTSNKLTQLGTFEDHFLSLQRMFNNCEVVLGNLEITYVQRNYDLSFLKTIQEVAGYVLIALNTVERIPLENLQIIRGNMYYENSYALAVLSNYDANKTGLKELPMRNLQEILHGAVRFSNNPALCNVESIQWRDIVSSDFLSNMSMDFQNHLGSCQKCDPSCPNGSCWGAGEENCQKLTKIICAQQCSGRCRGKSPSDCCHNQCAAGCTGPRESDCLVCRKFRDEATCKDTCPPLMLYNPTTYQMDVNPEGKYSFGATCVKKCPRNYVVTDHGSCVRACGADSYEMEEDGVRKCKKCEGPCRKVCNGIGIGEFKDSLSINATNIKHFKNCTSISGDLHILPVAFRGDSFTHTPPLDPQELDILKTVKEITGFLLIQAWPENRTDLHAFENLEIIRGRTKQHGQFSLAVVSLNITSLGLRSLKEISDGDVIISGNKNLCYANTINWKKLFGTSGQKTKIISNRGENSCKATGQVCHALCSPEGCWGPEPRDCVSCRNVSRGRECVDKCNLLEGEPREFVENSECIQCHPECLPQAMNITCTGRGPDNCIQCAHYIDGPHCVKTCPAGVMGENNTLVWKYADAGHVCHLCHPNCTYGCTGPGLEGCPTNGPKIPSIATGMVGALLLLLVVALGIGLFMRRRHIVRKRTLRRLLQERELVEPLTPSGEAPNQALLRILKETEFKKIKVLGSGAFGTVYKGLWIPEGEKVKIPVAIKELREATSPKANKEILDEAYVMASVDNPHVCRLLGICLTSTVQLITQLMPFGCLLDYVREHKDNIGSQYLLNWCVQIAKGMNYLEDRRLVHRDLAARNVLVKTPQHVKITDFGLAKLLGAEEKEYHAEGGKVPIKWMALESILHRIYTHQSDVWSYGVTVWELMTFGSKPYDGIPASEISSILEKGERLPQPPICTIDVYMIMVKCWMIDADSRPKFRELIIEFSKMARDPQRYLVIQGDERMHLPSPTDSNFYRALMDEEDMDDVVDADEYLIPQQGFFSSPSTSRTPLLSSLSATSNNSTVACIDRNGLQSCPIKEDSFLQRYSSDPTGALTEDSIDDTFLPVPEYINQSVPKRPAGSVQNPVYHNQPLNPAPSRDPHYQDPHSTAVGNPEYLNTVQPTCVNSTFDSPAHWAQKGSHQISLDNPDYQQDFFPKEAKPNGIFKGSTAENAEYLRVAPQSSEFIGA
Kind of assay: Enzyme assay, IC50 for wt EGFR (Caliper). The note with it: enzyme phosphorylation assay; read-out: EGFR_WT IC50. It counts as biochemical. On the procedure: Purification of Epidermal Growth Factor Receptor Tyrosine Kinase Human EGF receptor tyrosine kinase was isolated from A431 human epidermoid carcinoma cells which overexpress EGF receptor by the following methods. Cells were grown in roller bottles in 50% Delbuco's Modified Eagle and 50% HAM F-12 nutrient media (Gibco) containing 10% fetal calf serum. Approximately 10^9 cells were lysed in two volumes of buffer containing 20 mM 2-(4N-[2-hydroxyethyl]piperazin-1-yl)ethanesulfonic acid (hepes), pH 7.4, 5 mM ethylene glycol bis(2-aminoethyl ether) N,N,N′,N′-tetraacetic acid, 1% Triton X-1OO, 10% glycerol. 0.1 mM sodium orthovanadate, 5 mM sodium fluoride, 4 mM pyrophosphate, 4 mM benzamide, 1 mM dithiothreitol, 80 μg/mL aprotinin, 40 μg/mL leupeptin and 1 mM phenylmethylsulfonyl fluoride. After centrifugation at 25,000×g for 10 minutes, the supernatant was equilibrated for 2 h at […], with 10 mL of wheat germ agglutinin sepharose that was previously equilibrated with 50 mM Hepes, 10% glycerol, 0.1% Triton X-100 and 150 mM NaCl, pH 7.5, (equilibration buffer). Contaminating proteins were washed from the resin with 1M NaCl in equilibration buffer, and the enzyme was eluted with 0.5M N-acetyl-1-D-glucosamine in equilibration buffer, followed by 1 mM urea. The enzyme was eluted with 0.1 mg/ml EGF.
Determination of IC50 Values for Wt EGFR
Dilute all compounds to 500 μM stock solutions in 100% DMSO and make a serial of 4-fold dilution for 10 does. “Max” and “Min” control contain 100% DMSO. “Max” stands for […], “Min” stands for low control without compounds. Transfer 10 μl of compounds to 90 μl of Ix kinase base buffer to make intermediate dilution. Transfer 5 μl of intermediate dilution compounds to the 384-well assay plate, then 10 μl 2.5× enzyme buffer containing (20 nM EGFR, 5 mM DTT, 1× kinase base buffer) were added to assay plate. […] Incubate at RT for 1 hr and 25 μl stop buffer to end up reaction. Collect conversion data from Caliper and conversion data from Caliper program. Fit the data in XLfit to obtain IC50 values.

The test system of assay [3] is LoVo cells (unmutated EGFR wild type). The assay is described as follows: LoVo growth inhibition assay (cell proliferation), Method A. In kind it is cell-based. The following applies: Homo sapiens, cellular proliferation, 72 h, CellTiter-Glo (Table 1), read-out: LoVo IC50 (nM) WT. The procedure: as §1
LoVo Growth Inhibition Assay (Cell Proliferation)
The rest of the procedure was carried out in the same manner as described for the H1975 cells.

Molecules are shown by their SMILES.

Chain of EGFR_d746-750 (P00533 with tags, fused parts or gaps DEL746-750): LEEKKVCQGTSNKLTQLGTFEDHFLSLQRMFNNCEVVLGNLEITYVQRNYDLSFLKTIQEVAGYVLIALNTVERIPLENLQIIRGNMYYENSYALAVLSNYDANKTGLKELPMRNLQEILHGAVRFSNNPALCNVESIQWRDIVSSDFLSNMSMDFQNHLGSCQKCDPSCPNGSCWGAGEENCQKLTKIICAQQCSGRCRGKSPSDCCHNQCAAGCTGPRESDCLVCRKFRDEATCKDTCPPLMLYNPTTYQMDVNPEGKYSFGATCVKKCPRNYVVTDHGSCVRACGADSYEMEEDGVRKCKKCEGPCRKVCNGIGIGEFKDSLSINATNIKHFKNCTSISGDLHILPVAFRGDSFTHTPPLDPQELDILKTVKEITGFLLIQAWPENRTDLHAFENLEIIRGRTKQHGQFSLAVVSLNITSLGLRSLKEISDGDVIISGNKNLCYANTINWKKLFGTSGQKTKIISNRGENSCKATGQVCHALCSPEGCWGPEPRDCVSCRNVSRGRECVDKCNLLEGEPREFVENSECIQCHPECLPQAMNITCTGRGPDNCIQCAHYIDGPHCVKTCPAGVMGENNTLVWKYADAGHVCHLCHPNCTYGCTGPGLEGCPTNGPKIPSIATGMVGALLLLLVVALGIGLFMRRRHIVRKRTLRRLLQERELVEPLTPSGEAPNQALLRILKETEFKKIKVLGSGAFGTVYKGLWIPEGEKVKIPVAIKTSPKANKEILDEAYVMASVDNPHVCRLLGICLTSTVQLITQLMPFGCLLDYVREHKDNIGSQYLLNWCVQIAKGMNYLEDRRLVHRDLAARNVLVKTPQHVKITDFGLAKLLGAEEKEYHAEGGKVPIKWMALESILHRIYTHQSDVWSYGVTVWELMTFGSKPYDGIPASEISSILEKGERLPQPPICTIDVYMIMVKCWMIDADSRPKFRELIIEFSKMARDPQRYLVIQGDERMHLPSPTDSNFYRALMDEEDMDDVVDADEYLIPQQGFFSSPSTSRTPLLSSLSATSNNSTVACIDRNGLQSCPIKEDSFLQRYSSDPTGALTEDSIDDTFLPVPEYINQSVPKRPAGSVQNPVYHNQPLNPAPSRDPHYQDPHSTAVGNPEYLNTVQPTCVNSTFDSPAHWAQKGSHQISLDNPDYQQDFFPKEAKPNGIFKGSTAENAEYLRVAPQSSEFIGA
Chain of EGFR_T790M/L858R (P00533 25-1210 T790M/L858R): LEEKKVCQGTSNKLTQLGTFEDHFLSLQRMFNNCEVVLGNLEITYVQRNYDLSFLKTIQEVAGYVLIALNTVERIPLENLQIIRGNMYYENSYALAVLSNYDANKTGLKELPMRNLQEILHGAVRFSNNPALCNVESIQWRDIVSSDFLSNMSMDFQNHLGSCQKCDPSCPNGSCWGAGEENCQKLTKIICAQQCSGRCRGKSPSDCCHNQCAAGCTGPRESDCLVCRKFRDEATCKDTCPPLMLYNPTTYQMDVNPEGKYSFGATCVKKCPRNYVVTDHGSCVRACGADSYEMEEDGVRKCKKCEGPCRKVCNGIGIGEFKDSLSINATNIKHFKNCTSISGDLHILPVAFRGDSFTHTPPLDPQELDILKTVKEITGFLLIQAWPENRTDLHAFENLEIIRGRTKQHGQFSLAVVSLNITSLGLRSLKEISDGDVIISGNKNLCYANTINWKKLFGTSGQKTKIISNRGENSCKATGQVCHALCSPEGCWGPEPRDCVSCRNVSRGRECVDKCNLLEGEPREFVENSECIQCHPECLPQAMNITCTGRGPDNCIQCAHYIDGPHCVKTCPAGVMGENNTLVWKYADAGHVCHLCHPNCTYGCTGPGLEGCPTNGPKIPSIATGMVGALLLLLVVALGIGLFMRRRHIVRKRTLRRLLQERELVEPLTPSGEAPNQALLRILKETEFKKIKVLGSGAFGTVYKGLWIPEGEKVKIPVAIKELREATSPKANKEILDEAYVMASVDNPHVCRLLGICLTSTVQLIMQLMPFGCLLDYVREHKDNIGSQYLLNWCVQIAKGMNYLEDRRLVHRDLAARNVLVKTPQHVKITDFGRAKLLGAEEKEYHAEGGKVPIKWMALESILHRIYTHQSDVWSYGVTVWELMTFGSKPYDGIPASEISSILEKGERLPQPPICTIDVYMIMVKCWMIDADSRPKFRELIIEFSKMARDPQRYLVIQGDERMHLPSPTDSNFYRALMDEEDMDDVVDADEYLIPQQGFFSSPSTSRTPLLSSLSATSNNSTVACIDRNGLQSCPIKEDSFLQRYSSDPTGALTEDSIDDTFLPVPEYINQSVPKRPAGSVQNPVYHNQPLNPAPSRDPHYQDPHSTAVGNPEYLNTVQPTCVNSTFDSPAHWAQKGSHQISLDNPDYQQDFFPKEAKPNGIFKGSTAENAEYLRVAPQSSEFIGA

For the molecule `C=CC(=O)Nc1cc(Nc2nccc(-c3c[nH]c4c(C#N)cccc34)n2)c(OC)cc1N(C)CCN(C)C` [Example 12, N-(2-(N-(2-(N,N-Dimethylamino)ethyl)-N-methylamino)-4-methoxy-5-(4-(7-cyanoindol-3-yl)pyrimidin-2-ylamino)phenyl) propenamide], the IC50 worked out at 3.5 nM in assay [1]; 1.2 nM at EGFR_T790M/L858R; 1.1 nM against EGFR_d746-750; 5.2 nM in assay [2]; 1.5 nM at Wt EGFR; 2560 nM in assay [3].
`C=CC(=O)Nc1cc(Nc2nccc(-n3cc(Cl)c4ccccc43)n2)c(OC)cc1N(C)CCN(C)C` [Example 3, N-(2-(N,N-(2-(N,N-Dimethylamino)ethyl)-N-methylamino)-4-methoxy-5-(4-(3-chloroindol-1-yl)pyrimidin-2-ylamino)phenyl) propenamide]: the IC50 in assay [1] was 17.9 nM; at EGFR_T790M/L858R, 1.5 nM; at EGFR_d746-750 it was 5.3 nM; in assay [2], 23.3 nM; at Wt EGFR it was 8.4 nM; in assay [3], 2810 nM.
`C=CC(=O)Nc1cc(Nc2nccc(-n3cc(CO)c4ccccc43)n2)c(OC)cc1N(C)CCN(C)C` [Example 8, N-(2-(N-(2-(N,N-Dimethylamino)ethyl)-N-methylamino)-4-methoxy-5-(4-(3-(hydroxymethyl)indol-1-yl)pyrimidin-2-ylamino)phenyl) propenamide]: the IC50 in assay [1] was determined as 2.9 nM; on EGFR_T790M/L858R it was 1.8 nM; on EGFR_d746-750, 1.2 nM; in assay [2], 3.5 nM; at Wt EGFR, 2.1 nM; in assay [3] it was 6650 nM.
As to `C=CC(=O)Nc1cc(Nc2nccc(-n3ccc4ccccc43)n2)c(OC)cc1N(C)CCN(C)C` [Example 1], the IC50 was found to be 3.1 nM in assay [1]; 0.7 nM at EGFR_T790M/L858R; 2.4 nM against EGFR_d746-750; 6.8 nM in assay [2]; 4.1 nM at Wt EGFR; 3570 nM in assay [3].
With `C=CC(=O)Nc1cc(Nc2nccc(-n3cc(S(C)(=O)=O)c4ccccc43)n2)c(OC)cc1N(C)CCN(C)C` [Example 9, N-(2-(N-(2-(N,N-Dimethylamino)ethyl)-N-methylamino)-4-methoxy-5-(4-(3-(methylsulfonyl)indol-1-yl)pyrimidin-2-ylamino)phenyl) propenamide], the IC50 turned out to be 2.4 nM in assay [1]; 1.3 nM on EGFR_T790M/L858R; 1.1 nM at EGFR_d746-750; 3.4 nM in assay [2]; 1.5 nM at Wt EGFR; 5860 nM in assay [3].
For `C=CC(=O)Nc1cc(Nc2nccc(-n3cc(C#N)c4ccccc43)n2)c(OC)cc1N(C)CCN(C)C` [Example 4, N-(2-(N-(2-(N,N-Dimethylamino)ethyl)-N-methylamino)-4-methoxy-5-(4-(3-cyanoindol-1-yl)pyrimidin-2-ylamino)phenyl) propenamide], the IC50 was found to be 18.8 nM in assay [1]; 0.84 nM on EGFR_T790M/L858R; 2.6 nM against EGFR_d746-750; 25.9 nM in assay [2]; 3.8 nM at Wt EGFR; 2890 nM in assay [3].
Consider `C=CC(=O)Nc1cc(Nc2nccc(-c3c[nH]c4c(C)cccc34)n2)c(OC)cc1N(C)CCN(C)C` [Example 11, N-(2-(N-(2-(N,N-Dimethylamino)ethyl)-N-methylamino)-4-methoxy-5-(4-(7-methylindol-3-yl)pyrimidin-2-ylamino)phenyl) propenamide], for which the IC50 in assay [1] came out at 2.3 nM; on EGFR_T790M/L858R it was 1.3 nM; at EGFR_d746-750, 1 nM; in assay [2], 2.9 nM; on Wt EGFR, 1.5 nM; in assay [3], 4730 nM.
Regarding `C=CC(=O)Nc1cc(Nc2nccc(-c3n[nH]c4ccccc34)n2)c(OC)cc1N(C)CCN(C)C` [Example 15, N-(2-(N-(2-(N,N-Dimethylamino)ethyl)-N-methylamino)-4-methoxy-5-(4-(indazol-3-yl)pyrimidin-2-ylamino)phenyl) propenamide], the IC50 in assay [1] came out at 2.9 nM; on EGFR_T790M/L858R it was 1.5 nM; against EGFR_d746-750, 1.1 nM; in assay [2] it was 3.3 nM; at Wt EGFR it was 1.9 nM; in assay [3] it was 13500 nM.
Consider `C=CC(=O)Nc1cc(Nc2nccc(-c3c(C)[nH]c4ccccc34)n2)c(OC)cc1N(C)CCN(C)C` [Example 14, N-(2-(N-(2-(N,N-Dimethylamino)ethyl)-N-methylamino)-4-methoxy-5-(4-(2-methylindol-3-yl)pyrimidin-2-ylamino)phenyl) propenamide], for which the IC50 stood at 3.7 nM in assay [1]; 1.8 nM on EGFR_T790M/L858R; 1 nM at EGFR_d746-750; 6.1 nM in assay [2]; 5 nM at Wt EGFR; 2980 nM in assay [3].

For the origin of these results see patent publication US10435388B2, “Selective inhibitors of clinically important mutants of the EGFR tyrosine kinase” (CS PHARMATECH LIMITED, priority 2016, dated 2019).
